From patent publication US20230085307A1, “PYRIDAZINONE COMPOUND AND HERBICIDE” (NISSAN CHEMICAL CORPORATION, priority 2019, published 2023)

Tests used:
[1] = test system: wild oat; assay: Test Example 5: herbicidal effect by foliage application, plastic box (Table 20, symbol I); format: in vivo, wild oat (Avena fatua); settings: 320 g/ha, foliage application after 14-day growth, evaluated three weeks after application
Method in brief: (§1)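 Plants were sown into sterilized diluvial soil under about 1.5 cm cover and kept in a greenhouse at 25° C. to 30° C. Fourteen days on, foliage received an even spray of the diluted emulsion. Herbicidal or crop effect was judged three weeks afterwards.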

[2] = test system: Chinese sprangletop; assay: Test Example 3: herbicidal effect by foliage application, Wagner pot (Table 18, symbol D); format: in vivo, chinese sprangletop (Leptochloa chinensis); settings: 320 g/ha
Method in brief: (§2)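 Plants were sown in alluvial soil held under 0.1–0.5 cm standing water and grown 14 days in a greenhouse at 25–30 °C. An emulsifiable formulation, water-diluted to the set dose, was then sprayed onto the foliage, and effects were scored three weeks later using previously defined criteria.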

[3] = test system: lambsquarters; assay: Test Example 5: herbicidal effect by foliage application, plastic box (Table 20, symbol O); format: in vivo, lambsquarters (Chenopodium album); settings: 320 g/ha, foliage application after 14-day growth, evaluated three weeks after application
Method in brief: as §1

[4] = test system: persian speedwell; assay: Test Example 5: herbicidal effect by foliage application, plastic box (Table 20, symbol R); format: in vivo, Persian speedwell (Veronica persica); settings: 320 g/ha, foliage application after 14-day growth, evaluated three weeks after application
Method in brief: as §1

[5] = test system: lambsquarters; assay: Test Example 4: herbicidal effect by soil treatment (Table 19, symbol O); format: in vivo, lambsquarters (Chenopodium album); settings: amount of applied herbicide 320 g/ha
Method in brief: (§3)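 Pre-emergence style soil spray: seeds under ~1.5 cm sterilized diluvial soil received a uniform coat of emulsion diluted to the predetermined herbicide amount. Greenhouse 25–30° C; readout at week three on previously defined criteria.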

[6] = test system: velvetleaf; assay: Test Example 4: herbicidal effect by soil treatment (Table 19, symbol M); format: in vivo, velvetleaf (Abutilon theophrasti); settings: amount of applied herbicide 320 g/ha
Method in brief: as §3

[7] = test system: barnyard grass; assay: Test Example 3: herbicidal effect by foliage application, Wagner pot (Table 18, symbol H); format: in vivo, barnyard grass (Echinochloa crus-galli); settings: 320 g/ha
Method in brief: as §2

[8] = test system: persian speedwell; assay: Test Example 4: herbicidal effect by soil treatment (Table 19, symbol R); format: in vivo, Persian speedwell (Veronica persica); settings: amount of applied herbicide 320 g/ha
Method in brief: as §3

[9] = test system: windgrass; assay: Test Example 4: herbicidal effect by soil treatment (Table 19, symbol L); format: in vivo, windgrass (Apera spica-venti); settings: amount of applied herbicide 320 g/ha
Method in brief: as §3

[10] = test system: chickweed; assay: Test Example 5: herbicidal effect by foliage application, plastic box (Table 20, symbol P); format: in vivo, common chickweed (Stellaria media); settings: 320 g/ha, foliage application after 14-day growth, evaluated three weeks after application
Method in brief: as §1

[11] = test system: chickweed; assay: Test Example 4: herbicidal effect by soil treatment (Table 19, symbol P); format: in vivo, common chickweed (Stellaria media); settings: amount of applied herbicide 320 g/ha
Method in brief: as §3

[12] = test system: wild oat; assay: Test Example 4: herbicidal effect by soil treatment (Table 19, symbol I); format: in vivo, wild oat (Avena fatua); settings: amount of applied herbicide 320 g/ha
Method in brief: as §3

[13] = test system: redroot pigweed; assay: Test Example 5: herbicidal effect by foliage application, plastic box (Table 20, symbol N); format: in vivo, redroot pigweed (Amaranthus retroflexus); settings: 320 g/ha, foliage application after 14-day growth, evaluated three weeks after application
Method in brief: as §1

[14] = test system: blackgrass; assay: Test Example 4: herbicidal effect by soil treatment (Table 19, symbol J); format: in vivo, blackgrass (Alopecurus myosuroides); settings: amount of applied herbicide 320 g/ha
Method in brief: as §3

[15] = test system: green foxtail; assay: Test Example 4: herbicidal effect by soil treatment (Table 19, symbol G); format: in vivo, green foxtail (Setaria viridis); settings: amount of applied herbicide 320 g/ha
Method in brief: as §3

[16] = test system: Italian ryegrass; assay: Test Example 5: herbicidal effect by foliage application, plastic box (Table 20, symbol K); format: in vivo, Italian ryegrass (Lolium multiflorum); settings: 320 g/ha, foliage application after 14-day growth, evaluated three weeks after application
Method in brief: as §1

[17] = test system: Italian ryegrass; assay: Test Example 4: herbicidal effect by soil treatment (Table 19, symbol K); format: in vivo, Italian ryegrass (Lolium multiflorum); settings: amount of applied herbicide 320 g/ha
Method in brief: as §3

[18] = test system: redroot pigweed; assay: Test Example 4: herbicidal effect by soil treatment (Table 19, symbol N); format: in vivo, redroot pigweed (Amaranthus retroflexus); settings: amount of applied herbicide 320 g/ha
Method in brief: as §3

[19] = test system: windgrass; assay: Test Example 5: herbicidal effect by foliage application, plastic box (Table 20, symbol L); format: in vivo, windgrass (Apera spica-venti); settings: 320 g/ha, foliage application after 14-day growth, evaluated three weeks after application
Method in brief: as §1

[20] = test system: barnyard grass; assay: Test Example 5: herbicidal effect by foliage application, plastic box (Table 20, symbol H); format: in vivo, barnyard grass (Echinochloa crus-galli); settings: 320 g/ha, foliage application after 14-day growth, evaluated three weeks after application
Method in brief: as §1

[21] = test system: barnyard grass; assay: Test Example 4: herbicidal effect by soil treatment (Table 19, symbol H); format: in vivo, barnyard grass (Echinochloa crus-galli); settings: amount of applied herbicide 320 g/ha
Method in brief: as §3

[22] = test system: rice flat sedge; assay: Test Example 3: herbicidal effect by foliage application, Wagner pot (Table 18, symbol E); format: in vivo, rice flat sedge (Cyperus iria); settings: 320 g/ha
Method in brief: as §2

[23] = test system: blackgrass; assay: Test Example 5: herbicidal effect by foliage application, plastic box (Table 20, symbol J); format: in vivo, blackgrass (Alopecurus myosuroides); settings: 320 g/ha, foliage application after 14-day growth, evaluated three weeks after application
Method in brief: as §1

[24] = test system: velvetleaf; assay: Test Example 5: herbicidal effect by foliage application, plastic box (Table 20, symbol M); format: in vivo, velvetleaf (Abutilon theophrasti); settings: 320 g/ha, foliage application after 14-day growth, evaluated three weeks after application
Method in brief: as §1

[25] = test system: southern crabgrass; assay: Test Example 5: herbicidal effect by foliage application, plastic box (Table 20, symbol F); format: in vivo, southern crabgrass (Digitaria ciliaris); settings: 320 g/ha, foliage application after 14-day growth, evaluated three weeks after application
Method in brief: as §1

[26] = test system: green foxtail; assay: Test Example 5: herbicidal effect by foliage application, plastic box (Table 20, symbol G); format: in vivo, green foxtail (Setaria viridis); settings: 320 g/ha, foliage application after 14-day growth, evaluated three weeks after application
Method in brief: as §1

[27] = test system: southern crabgrass; assay: Test Example 4: herbicidal effect by soil treatment (Table 19, symbol F); format: in vivo, southern crabgrass (Digitaria ciliaris); settings: amount of applied herbicide 320 g/ha
Method in brief: as §3

Compound	herbicidal effect on I: wild oat (evaluation grade 0-5) [1]	herbicidal effect on Chinese sprangletop (D) [2]	herbicidal effect on O: lambsquarters (evaluation grade 0-5) [3]	herbicidal effect on R: persian speedwell (evaluation grade 0-5) [4]	Herbicidal effect by soil treatment, O: lambsquarters [5]	Herbicidal effect by soil treatment, M: velvetleaf [6]	herbicidal effect on barnyard grass (H) [7]	Herbicidal effect by soil treatment, R: persian speedwell [8]	Herbicidal effect by soil treatment, L: windgrass [9]	herbicidal effect on P: chickweed (evaluation grade 0-5) [10]	Herbicidal effect by soil treatment, P: chickweed [11]	Herbicidal effect by soil treatment, I: wild oat [12]	herbicidal effect on N: redroot pigweed (evaluation grade 0-5) [13]	Herbicidal effect by soil treatment, J: blackgrass [14]	Herbicidal effect by soil treatment, G: green foxtail [15]	herbicidal effect on K: Italian ryegrass (evaluation grade 0-5) [16]	Herbicidal effect by soil treatment, K: Italian ryegrass [17]	Herbicidal effect by soil treatment, N: redroot pigweed [18]	herbicidal effect on L: windgrass (evaluation grade 0-5) [19]	herbicidal effect on H: barnyard grass (evaluation grade 0-5) [20]	also measured
CCCC(=O)Oc1c(C)nn(C)c(=O)c1-c1c(-c2ccc(F)cc2)sc2c(F)cccc12 [4-002]	0 (Herbicidal rate of 5% or less (almost no effect))	2 (Herbicidal rate of 20% or more and less than 40%)	3 (Herbicidal rate of 40% or more and less than 70%)	4 (Herbicidal rate of 70% or more and less than 90%)	3 (Herbicidal rate of 40% or more and less than 70%)	2 (Herbicidal rate of 20% or more and less than 40%)	5 (Herbicidal rate of 90% or more (almost completely withered))	0 (Herbicidal rate of 5% or less (almost no effect))	0 (Herbicidal rate of 5% or less (almost no effect))	5 (Herbicidal rate of 90% or more (almost completely withered))	0 (Herbicidal rate of 5% or less (almost no effect))	0 (Herbicidal rate of 5% or less (almost no effect))	5 (Herbicidal rate of 90% or more (almost completely withered))	0 (Herbicidal rate of 5% or less (almost no effect))	2 (Herbicidal rate of 20% or more and less than 40%)	3 (Herbicidal rate of 40% or more and less than 70%)	0 (Herbicidal rate of 5% or less (almost no effect))	3 (Herbicidal rate of 40% or more and less than 70%)	0 (Herbicidal rate of 5% or less (almost no effect))	4 (Herbicidal rate of 70% or more and less than 90%)	Herbicidal effect by soil treatment, H: barnyard grass [21]: 4 (Herbicidal rate of 70% or more and less than 90%); herbicidal effect on rice flat sedge (E) [22]: 5 (Herbicidal rate of 90% or more (almost completely withered)); herbicidal effect on J: blackgrass (evaluation grade 0-5) [23]: 1 (Herbicidal rate of 5% or more and less than 20%); herbicidal effect on M: velvetleaf (evaluation grade 0-5) [24]: 5 (Herbicidal rate of 90% or more (almost completely withered)); herbicidal effect on F: southern crabgrass (evaluation grade 0-5) [25]: 0 (Herbicidal rate of 5% or less (almost no effect)); herbicidal effect on G: green foxtail (evaluation grade 0-5) [26]: 4 (Herbicidal rate of 70% or more and less than 90%); Herbicidal effect by soil treatment, F: southern crabgrass [27]: 0 (Herbicidal rate of 5% or less (almost no effect))
Cc1nn(C)c(=O)c(-c2c(-c3ccc(OC(F)(F)F)cc3)sc3c(F)cccc23)c1O [4-048]	3 (Herbicidal rate of 40% or more and less than 70%)	5 (Herbicidal rate of 90% or more (almost completely withered))	3 (Herbicidal rate of 40% or more and less than 70%)	5 (Herbicidal rate of 90% or more (almost completely withered))	1 (Herbicidal rate of 5% or more and less than 20%)	0 (Herbicidal rate of 5% or less (almost no effect))	5 (Herbicidal rate of 90% or more (almost completely withered))	5 (Herbicidal rate of 90% or more (almost completely withered))	0 (Herbicidal rate of 5% or less (almost no effect))	5 (Herbicidal rate of 90% or more (almost completely withered))	1 (Herbicidal rate of 5% or more and less than 20%)	0 (Herbicidal rate of 5% or less (almost no effect))	5 (Herbicidal rate of 90% or more (almost completely withered))	0 (Herbicidal rate of 5% or less (almost no effect))	0 (Herbicidal rate of 5% or less (almost no effect))	4 (Herbicidal rate of 70% or more and less than 90%)	0 (Herbicidal rate of 5% or less (almost no effect))	3 (Herbicidal rate of 40% or more and less than 70%)	5 (Herbicidal rate of 90% or more (almost completely withered))	5 (Herbicidal rate of 90% or more (almost completely withered))	Herbicidal effect by soil treatment, H: barnyard grass [21]: 2 (Herbicidal rate of 20% or more and less than 40%); herbicidal effect on rice flat sedge (E) [22]: 5 (Herbicidal rate of 90% or more (almost completely withered)); herbicidal effect on J: blackgrass (evaluation grade 0-5) [23]: 0 (Herbicidal rate of 5% or less (almost no effect)); herbicidal effect on M: velvetleaf (evaluation grade 0-5) [24]: 3 (Herbicidal rate of 40% or more and less than 70%); herbicidal effect on F: southern crabgrass (evaluation grade 0-5) [25]: 1 (Herbicidal rate of 5% or more and less than 20%); herbicidal effect on G: green foxtail (evaluation grade 0-5) [26]: 5 (Herbicidal rate of 90% or more (almost completely withered)); Herbicidal effect by soil treatment, F: southern crabgrass [27]: 1 (Herbicidal rate of 5% or more and less than 20%)
